Results reported in US9182402B2, “Hepsin inhibitors” (Fred Hutchinson Cancer Research Center, priority 2008, dated 2015).

Assays:
LNCaP cells = test: Cell cytotoxicity assay (CellTiter-Glo, ATP-luciferase); conditions: 20 μM, 72 hours, compounds replenished daily
[1] = system: MP-1 mouse prostate epithelial cell line; test: as above; conditions: MP-1, 20 μM, 72 hours, compounds replenished daily
HepG2 cells = test: as above; conditions: HepG2, 20 μM, 72 hours, compounds replenished daily
thrombin = thrombin (Bos taurus (Bovine), UniProt P00735); test: Thrombin activity assay (chromogenic substrate); format: biochemical; conditions: 30 minutes preincubation at room temperature, substrate at Km
Description: (§3) Titration of the chromogenic substrate pryoGlu-Pro-Arg-pNA was performed for each enzyme and the resulting substrate-velocity data fit with nonlinear regression using GraphPad Prism 4 software (GraphPad, La Jolla, Calif.) to calculate Vmax and Km. […] The reactions were then followed using a kinetic microplate reader and the linear rates of increase in absorbance at 405 nm expressed as percent activity (100%×vi/vo). At least three independent experiments were performed for each enzyme. The IC50 was calculated by fitting the data to a four-parameter non-linear regression using GraphPad Prism 4.

[2] = molecular target: full-length wild-type murine hepsin expressed in HEK 293FT cells (Mus musculus (Mouse), UniProt O35453); test: Hepsin-dependent pericellular serine proteolytic activity assay; format: cell-based; conditions: overnight incubation; for attenuation of hepsin-dependent pericellular proteolytic activity: 50 μM, activity/expression level relative to vehicle; for pericellular proteolytic activity (in words): 20 and 50 μM
full-length wild-type murine hepsin expressed in HEK 293FT cells, sequence (O35453 other isoform, or with tags, fused parts or gaps): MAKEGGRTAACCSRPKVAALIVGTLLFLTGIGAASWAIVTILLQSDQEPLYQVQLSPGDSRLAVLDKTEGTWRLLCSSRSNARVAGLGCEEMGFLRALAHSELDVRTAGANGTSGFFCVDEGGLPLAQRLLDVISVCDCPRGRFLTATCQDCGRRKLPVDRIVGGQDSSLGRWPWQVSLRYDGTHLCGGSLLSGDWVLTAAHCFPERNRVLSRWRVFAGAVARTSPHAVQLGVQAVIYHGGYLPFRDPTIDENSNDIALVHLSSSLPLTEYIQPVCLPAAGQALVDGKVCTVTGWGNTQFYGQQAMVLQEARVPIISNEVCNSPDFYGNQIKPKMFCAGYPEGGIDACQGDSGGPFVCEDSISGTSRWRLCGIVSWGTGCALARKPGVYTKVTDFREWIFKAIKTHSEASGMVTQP
Description: Loading was verified via immunoblot against β-actin.
G. Pericellular Serine Proteolytic Activity Assay. […] After 3.5 hrs, transfection media was replaced with fresh media containing 20 μM or 50 μM of test compounds or solvent control (0.5% DMSO in media) and cells incubated overnight. Attached cell monolayers were then washed twice with PBS and once with assay buffer (5% CO2 equilibrated phenol-red free DMEM with 1% BSA) to remove residual serum proteases/inhibitors. Cells were then incubated in assay buffer containing 20 or 50 μM compounds for 30 minutes at 37° C. […] Percent inhibition was calculated as residual activity relative to solvent control. Matched samples were used in parallel to determine toxicity of the test compounds to HEK 293FT cells in this system using the CellTiter-Glo™ assay.
D. Inhibition of Hepsin-Dependent Pericellular Proteolytic Activity. To determine whether the identified compounds were able to inhibit cell-based hepsin activity, an assay was devised to measure hepsin-dependent pericellular serine proteolytic activity (FIG. 5A) (Raynaud et al., 1992 J Cell Physiol 151:378; Bauvois et al., 1990 Eur. J. Immunol. 20:459; Bauvois et al., 1992 Eur. J. Immunol. 22:923; Sameni et al., 2000 Neoplasia 2:496; McGowen et al., 2000 Canc. Res. 60:4771). […] Attached cell monolayers were incubated in assay buffer with peptide substrate and the reactions were allowed to proceed at 37° C. […] Activity levels were adjusted by altering hepsin expression levels to within the linear range of detection. A positive linear rate of activity was observed only for wild-type hepsin-expressing cells and was abolished in the presence of the broad spectrum serine protease inhibitor PEFAbloc.

hepsin = hepsin (Mus musculus (Mouse), UniProt O35453); test: Immunoblot of hepsin expression levels in compound treated HEK 293FT cells; conditions: 20 and 50 μM, 24 hours
Description: The membrane was blocked overnight in TBST buffer containing: 5% non-fat milk, 2% normal goat serum in 50 mM Tris-HCl, pH 8.0, 100 mM NaCl, 0.1% Tween-20. The membrane was then incubated in 3% BSA in TBST with polyclonal anti-hepsin antibody (1:1000) for two hours at room temperature, washed 3×5 minutes with TBST and incubated for one hour in 0.1% BSA in TBST containing goat-anti-rabbit-HRP secondary antibody (1:2000), washed 3×5 minutes in TBST and developed with ECL (Pierce Chemicals, Rockford, Ill.). […] Expression levels were quantified by densitometry using ImageQuantTL™ (GE Healthcare Life Sciences, Piscataway, N.J.).
As treatment with chemical compounds may alter hepsin expression level (and thereby impact pericellular proteolytic activity), hepsin levels in drug-treated cells were determined via immunoblotting (FIG. 6B).

recombinant human hepsin [3] = test: Hepsin activity assay (chromogenic substrate pyroGlu-Pro-Arg-pNA); format: biochemical; conditions: hepsin relative to trypsin and thrombin
Description: (§1) D. Hepsin, Trypsin and Thrombin Activity Assays.
(§2) Purified recombinant hepsin was preincubated with indicated compounds for 30 minutes at room temperature.

recombinant human hepsin [4] = molecular target: recombinant human hepsin (Homo sapiens, UniProt P05981); test: as above; format: biochemical; conditions: 30 minutes preincubation at room temperature, substrate at Km
recombinant human hepsin (Homo sapiens, UniProt P05981), sequence (P05981 1-162 limits assumed): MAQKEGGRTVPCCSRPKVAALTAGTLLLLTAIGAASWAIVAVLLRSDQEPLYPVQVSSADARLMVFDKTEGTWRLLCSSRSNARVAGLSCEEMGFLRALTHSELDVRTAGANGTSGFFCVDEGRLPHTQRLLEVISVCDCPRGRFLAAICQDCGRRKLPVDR
recombinant human hepsin (Homo sapiens, UniProt P05981), sequence (P05981 163-417 limits assumed): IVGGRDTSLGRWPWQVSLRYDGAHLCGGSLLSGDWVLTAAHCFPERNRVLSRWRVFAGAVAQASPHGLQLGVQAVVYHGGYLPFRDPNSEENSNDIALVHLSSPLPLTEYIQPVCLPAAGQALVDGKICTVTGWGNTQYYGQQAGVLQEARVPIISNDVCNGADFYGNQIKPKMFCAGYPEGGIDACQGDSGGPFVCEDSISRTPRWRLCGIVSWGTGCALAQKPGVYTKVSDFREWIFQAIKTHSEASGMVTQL
Description: as §1, §2

trypsin = trypsin (Sus scrofa (Pig), UniProt P00761); test: Trypsin activity assay (chromogenic substrate); conditions: read-out: IC50 trypsin; 30 minutes preincubation at room temperature, substrate at Km
trypsin, sequence (P00761 9-231): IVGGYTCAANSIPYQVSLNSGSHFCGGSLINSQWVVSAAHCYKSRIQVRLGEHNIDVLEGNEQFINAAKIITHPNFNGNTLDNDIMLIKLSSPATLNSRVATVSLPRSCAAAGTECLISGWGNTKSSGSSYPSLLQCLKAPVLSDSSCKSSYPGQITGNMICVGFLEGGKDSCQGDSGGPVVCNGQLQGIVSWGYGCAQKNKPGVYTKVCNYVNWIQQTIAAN
Description: as §3

[5] = approximate value; cited from earlier work

Row | Structure (SMILES) | cellular toxicity (cell viability) (LNCaP cells) | cellular toxicity (cell viability) [1] | cellular toxicity (cell viability) (HepG2 cells) | IC50 (thrombin) | attenuation of hepsin-dependent pericellular proteolytic activity [2] | attenuation of hepsin-dependent pericellular proteolytic activity ([2]; listed as Meclizine) | pericellular proteolytic activity (in words) [2] | hepsin expression levels (hepsin) | specificity for hepsin (recombinant human hepsin [3]) | IC50 (recombinant human hepsin [4]) | IC50 (trypsin) | logP [5]
1 | Cc1cccc(CN2CCN(C(c3ccccc3)c3ccc(Cl)cc3)CC2)c1 (stereo not shown) [Compound 13, 1-[(4-chlorophenyl)(phenyl)methyl]-4-(3-methylbenzyl)piperazine, reference compound] | limited or no cytotoxicity | limited or no cytotoxicity | limited or no cytotoxicity | > 20 µM | ~25% | 30% | attenuated pericellular proteolytic activity in a dose dependent manner | without substantially affecting hepsin expression levels | > 10 fold | 2.02 ± 0.37 µM | > 20 µM | –
2 | CC(C)(Sc1cc(C(C)(C)C)c(O)c(C(C)(C)C)c1)Sc1cc(C(C)(C)C)c(O)c(C(C)(C)C)c1 [Compound 14, 4,4′-[propane-2,2-diylbis(sulfanediyl)]bis(2,6-di-tert-butylphenol), reference compound] | limited or no cytotoxicity | limited or no cytotoxicity | limited or no cytotoxicity | > 20 µM | – | – | not have shown an ability to reduce pericellular serine protease activity | – | – | 0.43 ± 0.05 µM | 33.5 ± 11.5 µM | ~10
